Test results: patent US20190053492A1, “SUBSTITUTED PYRIDINE COMPOUNDS AS PESTICIDES” (Bayer CropScience Aktiengesellschaft, priority 2016, published 2019)
Read-outs that look alike come from different tables or passages of the source.

Tests used:
Spodoptera frugiperda = Spodoptera frugiperda spray test; type: in vivo; conditions: after 7 days, maize leaf discs
Procedure, shortened: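 Efficacy in % was scored at 7 days against armyworm caterpillars placed on dried, compound-sprayed Zea mays leaf discs. Compound was dissolved in acetone/dimethylformamide and diluted in water with 1000 ppm alkylaryl polyglycol ether. 100% means all caterpillars were killed.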

Phaedon cochleariae = Phaedon cochleariae spray test; type: in vivo; conditions: after 7 days, Chinese cabbage leaf discs
Procedure, shortened: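 Larval kill read at day 7 as percent, where 100% means every larva dead and 0% none; larvae were placed on dried Brassica pekinensis leaf discs previously sprayed with the formulation (acetone/dimethylformamide solvent, alkylaryl polyglycol ether emulsifier, water).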

[1] = log P by HPLC on reversed-phase column (C 18), EEC Directive 79/831 Annex V.A8; type: physicochemical; conditions: 55° C.; for LOGP_HCOOH: log P (HCOOH); for chromatographic logP: reversed-phase HPLC column (C 18)
Protocol: Temperature: 55° C. […] Called log P (HCOOH) in the table. […] Called log P (neutral) in the table.

[2] = Spodoptera frugiperda, foliar, 168 h, application rate 500 g/ha, read-out: efficacy (caterpillars killed)
[3] = acidic range at pH 2.7, 0.1% aqueous formic acid and acetonitrile, HPLC on reversed-phase column (C 18)
[4] = log P, neutral range, HPLC on reversed-phase column (C 18)
[5] = pH 2.7, LC-MS acidic range, pH 2.7, 0.1% formic acid/acetonitrile, read-out: log P (acidic) / log P (HCOOH)
[6] = acidic range pH 2.7, 0.1% aqueous formic acid and acetonitrile, reversed-phase column (C 18)
[7] = log P (neutral), HPLC reversed-phase column (C 18)

SMILES | LOGP_NEUTRAL [1, 4] | efficacy (caterpillars killed) (Spodoptera frugiperda; application rate 500 g/ha) [%] | efficacy (beetle larvae killed) (Phaedon cochleariae; application rate 100 g/ha) [%] | LOGP_HCOOH [1, 6] | efficacy (caterpillars killed) (Spodoptera frugiperda; application rate 100 g/ha) [%] | efficacy (beetle larvae killed) (Phaedon cochleariae; application rate 500 g/ha) [%] | other results
CN(C(=O)C1CC1)c1cc(-c2ccc(OC(F)(F)F)cc2)cc(C(=O)NCc2ccc(C#N)cc2)n1 [Example I-215, N-(4-Cyanobenzyl)-6-[(cyclopropylcarbonyl)(methyl)amino]-4-[4-(trifluoromethoxy)phenyl]pyridine-2-carboxamide] | 3.84 | – | – | – | – | – | pest or weed control at 100 g/ha (Spodoptera frugiperda; Spodoptera frugiperda, foliar, 168 h, application rate 100 g/ha, read-out: efficacy (caterpillars killed)): 100%; pest or weed control at 500 g/ha (Spodoptera frugiperda; [2]): 83%; pest or weed control at 100 g/ha (Phaedon cochleariae; Phaedon cochleariae, foliar, 168 h, application rate 100 g/ha, read-out: efficacy (beetle larvae killed)): 100%; LOGP_HCOOH [1, 3]: 3.85; chromatographic logP [1, 5]: 3.85; chromatographic logP ([1]; pH 7.8, LC-MS neutral range, pH 7.8, ammonium hydrogencarbonate/acetonitrile, read-out: log P (neutral)): 3.84
N#Cc1ccc(ONC(=O)c2cc(-c3ccc(OC(F)(F)F)cc3)cc(NC(=O)C3CC3)n2)cc1 [Example I-239] | – | 83 | 83 | 3.72 | – | – | LOGP_NEUTRAL [1, 7]: 3.13
C[C@H](NC(=O)c1cc(-c2ccc(OC(F)(F)F)cc2)cc(NC(=O)C2CC2)n1)c1ccc(C(F)(F)F)cc1 [Example I-061] | 4.89 | 100 | – | 5.01 | 100 | 100 | –
N#Cc1ccc(CNC(=O)c2cc(-c3ccc(SC(F)(F)F)cc3)cc(NC(=O)C3CC3)n2)cn1 [Example I-090] | 3.72 | 100 | – | 3.79 | 83 | 100 | –
CCNC(=O)c1cc(-c2ccc(C(F)(F)F)cc2)cc(NC(=O)C2CC2)n1 [Example I-016] | 3.23 | 100 | – | 3.30 | – | 83 | –
N#Cc1ccc(CNC(=O)c2cc(-c3ccc(C(F)(F)F)cc3)cc(NC(=O)CC3CC3)n2)cc1 [Example I-055] | 3.82 | 100 | – | 3.92 | 100 | 100 | –
N#Cc1cc(F)c(CNC(=O)c2cc(-c3ccc(C(F)(F)F)cc3)cc(NC(=O)C3CC3)n2)c(F)c1 [Example I-068] | 3.87 | 100 | 100 | 4.00 | 100 | 100 | –
O=C(NCc1ccc(Cl)nc1)c1cc(-c2ccc(C(F)(F)F)cc2)cc(NC(=O)C2CC2)n1 [Example I-011] | 3.55 | 100 | 100 | 3.67 | – | 100 | –
O=C(NCc1ccc(Cl)cc1F)c1cc(-c2ccc(OC(F)(F)F)cc2)cc(NC(=O)C2CC2)n1 [Example I-067] | 4.60 | 100 | – | 4.78 | 100 | 100 | –
O=C(NCc1ccc([N+](=O)[O-])s1)c1cc(-c2ccc(OC(F)(F)F)cc2)cc(NC(=O)C2CC2)n1 [Example I-240] | – | 100 | – | 4.10 | 83 | 100 | LOGP_NEUTRAL [1, 7]: 4.04
O=C(Cc1ccc(Br)cc1)Nc1cc(-c2ccc(OC(F)(F)F)cc2)cc(C(=O)NC2CC2)n1 [Example I-125] | 4.20 | 100 | – | – | 100 | 100 | LOGP_HCOOH [1, 3]: 4.46
N#CCCCCNC(=O)c1cc(-c2ccc(OC(F)(F)F)cc2)cc(NC(=O)C2CC2)n1 [Example I-157] | 3.26 | 83 | – | – | 100 | 100 | LOGP_HCOOH [1, 3]: 3.38
O=C(NCc1ccc(Cl)cc1F)c1cc(-c2ccc(C(F)(F)F)cc2)cc(NC(=O)C2CC2)n1 [Example I-066] | 4.53 | 100 | – | 4.63 | – | 100 | –
N#Cc1ccc(CNC(=O)c2cc(-c3ccc(CC(F)(F)F)cc3)cc(NC(=O)C3CC3)n2)cc1 [Example I-144] | 3.00 | 100 | 100 | – | 100 | 100 | LOGP_HCOOH [1, 3]: 3.55
O=C(NCc1ccccn1)c1cc(-c2ccc(C(F)(F)F)cc2)cc(NC(=O)C2CC2)n1 [Example I-007] | 2.75 | 83 | – | 3.19 | – | 100 | –
N#Cc1ccc(CNC(=O)c2cc(-c3ccc(C(F)(F)F)cc3)cc(NC(=O)C3CCC3)n2)cc1 [Example I-045] | 3.99 | 100 | 100 | 4.14 | – | 83 | –
N#Cc1ccc(CNC(=O)c2cc(-c3ccc(C(F)(F)F)nc3)cc(NC(=O)C3CC3)n2)cc1 [Example I-123, N-(4-Cyanobenzyl)-6′-[(cyclopropylcarbonyl)amino]-6-(trifluoromethyl)-3,4′-bipyridine-2′-carboxamide] | 2.99 | – | – | – | – | – | pest or weed control at 500 g/ha (Spodoptera frugiperda; [2]): 100%; pest or weed control at 500 g/ha (Phaedon cochleariae; Phaedon cochleariae, foliar, 168 h, application rate 500 g/ha, read-out: efficacy (beetle larvae killed)): 100%; chromatographic logP [1, 5]: 3.02; chromatographic logP ([1]; pH 2.7, log P (HCOOH), acidic range at pH 2.7, 0.1% aqueous formic acid and acetonitrile, HPLC on reversed-phase column (C 18), read-out: LOGP_HCOOH): 3.13
Cn1ncc2cc(CNC(=O)c3cc(-c4ccc(OC(F)(F)F)cc4)cc(NC(=O)C4CC4)n3)cnc21 [Example I-114] | 3.23 | 100 | – | – | 83 | 100 | LOGP_HCOOH [1, 3]: 3.33
O=C(NC1CC1)c1cc(-c2ccc(C(F)(F)C(F)(F)F)c(F)c2)cc(NC(=O)C2CC2)n1 [Example I-243] | – | 100 | 100 | 3.94 | 100 | 100 | –
